For experiment [1], the target named is Cyclin-dependent kinase 4 (Homo sapiens, UniProt P11802). The experiment can be described thus: Biological Assay: An assay for monitoring CDK4/cyclin D1-catalyzed phosphorylation of pRb at the Ser780 site was performed using TR-FRET in a 384-well format, and was used for IC50 determination and kinetic analysis. The reaction was carried out in a 30 uL volume containing 0.3 nM CDK4/cyclin D1, 150 nM biotin-pRb (773-924), 3 uM ATP, and 1.3% DMSO (or compound in DMSO) in the assay buffer (50 mM HEPES-Na, pH 7.5; 5 mM MgCl2, 1 mM DTT, 0.02% Tween-20, and 0.05% BSA). 3 uM ATP was added last to initiate the reaction. The reaction was quenched with 10 uL of 240 mM EDTA-Na (pH 8.0) after 60 min incubation at 22 C. The signal was developed by the addition of 40 uL detection solution containing 40 nM SA-APC, 143 ng/mL anti-phospho-pRb (S780) antibody, and 1 nM Eu-W1024 anti-rabbit IgG antibody in the detection buffer (50 mM HEPES-Na, pH 7.5, 60 mM EDTA-Na, pH 8.0, 0.05% BSA, and 0.1% Triton X-100). After 60 min incubation in the dark, the plate was read on Envision.

The target in experiment [2] is Cyclin-dependent kinase 1 (Homo sapiens, UniProt P06493). The experiment can be described thus: IMAP-FP (Molecular Devices Trade Mark Technology) Endpoint Assay: A 384-well microtiter IMAP-FP (Molecular Devices Trade Mark Technology) endpoint assay was used for CDK1/cyclin B kinase activity measurements. The same assay was used for IC50 determination of small molecule inhibitors. In general, the kinase reactions were carried out in 20 uL volumes in the reaction solution, which is composed of 2 uL compound (in 20% DMSO), 8 uL CDK1/cyclin B in the 1x Reaction Buffer (Molecular Devices, Cat. No. R8139), 10 uL substrate mixture of Tamra Histone-H1 peptide (Molecular Devices, Cat. No. R7384) and ATP (Amersham Pharmacia, Cat. No. 27-2056-01) in the 1x Reaction Buffer with 1 mM DTT freshly added. The final reaction mixture contains compound (inhibitor) with the concentration varying from 0.005-10 uM, 2% DMSO, 0.25 nM CDK1/cyclin B, 100 nM Tamra Histone-H1 peptide, and 20 uM ATP.All reactions were run at room temperature in black 384-well flat-bottom Costar plates (Corning, Cat. No. 3710) for 120 min then were quenched.

SMILES strings stand for the structures.

Chain of Cyclin-dependent kinase 4 (P11802 whole entry): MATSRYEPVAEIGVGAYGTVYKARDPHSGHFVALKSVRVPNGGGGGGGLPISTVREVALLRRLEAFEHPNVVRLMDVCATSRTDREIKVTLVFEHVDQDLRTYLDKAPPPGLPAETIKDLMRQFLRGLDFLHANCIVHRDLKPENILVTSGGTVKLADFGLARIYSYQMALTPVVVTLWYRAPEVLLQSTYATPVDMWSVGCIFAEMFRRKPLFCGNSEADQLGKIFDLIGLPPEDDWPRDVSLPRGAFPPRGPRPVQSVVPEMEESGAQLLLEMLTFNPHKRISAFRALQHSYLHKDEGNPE
Chain of Cyclin-dependent kinase 1 (P06493 whole entry): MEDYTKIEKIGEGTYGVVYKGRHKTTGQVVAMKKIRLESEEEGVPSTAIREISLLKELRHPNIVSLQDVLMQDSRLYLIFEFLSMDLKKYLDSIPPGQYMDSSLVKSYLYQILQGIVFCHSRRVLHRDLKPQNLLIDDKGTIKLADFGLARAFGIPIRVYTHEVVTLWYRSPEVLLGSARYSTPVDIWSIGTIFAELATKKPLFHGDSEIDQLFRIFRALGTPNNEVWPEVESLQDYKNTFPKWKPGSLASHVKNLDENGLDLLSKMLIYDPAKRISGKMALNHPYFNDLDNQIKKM

By IC50 is commonly meant the concentration at which inhibition is half-maximal. In the case of `CN(C)C(=O)c1cc2cnc(Nc3ccc(N4CC5CCC(CC4=O)N5)cn3)nc2n1-c1ccc(C(C)(C)C#N)cc1` (configuration not stated), the half-maximal inhibitory concentration (IC50) in experiment [1] is 5 nM; in experiment [2] it was over 15000 nM.
